Columns and labels:
[1] = test system: downy mildew (P. viticola) strains PV221, PV413-1, PV1538-1; experiment: In vitro efficacy test on vine leaf discs (Example 2); format: cell-based, Plasmopara viticola; settings: mean over downy mildew strains; Example 2 method
[2] = test system: downy mildew, powdery mildew and vine rot

Mean IC50 (CI 50) [1] [µg/mL] | Mean MIC (CMI) [1] [µg/mL] | Structure (SMILES) | effect on phytopathogens, in words [2]
1850 | 10000 | O=C([O-])O.[Na+] [NaHCO3, sodium bicarbonate] | 
1000 | 5600 | O=C([O-])O.[K+] [KHCO3, potassium bicarbonate] | significant

— patent publication US20240358021A1, “COMPOSITION COMPRISING POTASSIUM BICARBONATE AND USE THEREOF FOR TREATING AND/OR PROTECTING CROPS” (SCEA DU CHATEAU MONTROSE, priority 2021, published 2024)
